Article PMC8198214, “Synthesis and Biological Evaluation of Spirocyclic Chromane Derivatives as a Potential Treatment of Prostate Cancer” (Molecules, 2021)
Read-outs that look alike come from different tables or passages of the source. One block for each compound: values may come before it.

Legend:
22Rv1 cells = test: 22Rv1 cell viability (CCK-8) antiproliferation assay; format: cell-based, human; conditions: for IC50: 22Rv1 cells, means of two independent experiments (n = 2)
Method: The 22Rv1 prostate cancer cell line in this study was purchased from KeyGEN Biotech Co. Ltd. (Nanjing, Jiangsu, China ). The cells were cultured in RPMI 1640 medium and maintained at 37 °C in a 5% CO2 incubator. For the cell viability assay, the cell slurry was diluted to required volume at a density of 80,000 cells/mL. Then, 100 μL the cell slurry was seeded in each well of the 96-well plate. The cells were incubated for 72 h at 37 °C, 5% CO2 under humidified condition. The reference and test compounds solution (200×) were prepared with DMSO and were diluted from 200× to 1× with culture medium (RPMI 1640 medium without phenol red and containing 10% fetal calf serum, penicillin (100U/mL), streptomycin (100 μg/mL) and 0.1 nM DHT). The previous culture medium was removed and 200 μL/well of the compound solution (1×) was added to assay plate (final conc: 1×). Then the cells were incubated at 37 °C, 5% CO2 under humidified conditions. 5 Days later, the CCK-8 assay reagent was equilibrated at room temperature for 30 min prior to use. CCK-8 was mixed with fresh medium at a ratio of 1:10 and 100 μL of the diluted CCK8 reagent was added to each well and the plates were incubated for 4.5 h at 37 °C. Finally, absorbance value (OD value) was read on plate reader. GraphPad Prism v5.0 software was used to process data for IC50.

[1] = Pharmacokinetics in male Balb/C mice (IV and PO); format: in vivo; conditions: mouse, plasma; for clearance: n = 3, read-out: CL (clearance) (converted); for Vd: n = 3, read-out: V ss (0–24 h) (volume of distribution at steady state); for bioavailability: PO. 10 mg/kg vs IV. 1 mg/kg, n = 3, read-out: F (oral bioavailability); for Cmax: n = 3, Table 3, read-out: Cmax (maximum concentration observed)
Method: Pharmacokinetic experiments of test compounds were performed in male Balb/C mice similarly to our previous work. The mice were randomly assigned to two groups and were administrated the test compound orally and intravenously, respectively. The test compounds were prepared into 0.5 mg/mL oral solution with 10%PG, 10% ethanol, 10% solutol and 70% normal saline, or 0.1 mg/mL injection solution with 2% PG, 2% ethanol, 2% solutol and 94% normal saline. After intravenous or oral administration, blood was collected from the orbital venous plexus into heparinized EP tube (0.6 mL) at 5, 15, 30 min, 1, 2, 6, 10, and 24 h, temporarily placed on crushed ice. Certain processing was performed on blood samples and testing samples were sent to LC-MS/MS for analysis.

[2] = IV. 1 mg/kg, n = 3, read-out: AUC(0–24h)
[3] = IV. 1 mg/kg, n = 3, read-out: T1/2 (half-life) (converted)
[4] = PO. 10 mg/kg, n = 3, Table 3, read-out: AUC (0–24 h)
[5] = PO. 10 mg/kg, n = 3, Table 3, read-out: T1/2 (converted)

IC50 (22Rv1 cells; Homo sapiens, Table 2): 153 nM
AUC(0-t) [1, 2]: 766 ± 71.2 ng·h/mL
clearance ([1]; IV. 1 mg/kg): 18.3 mL/min/kg
half-life [1, 3]: 1020 ± 294 min
Vd ([1]; IV. 1 mg/kg): 13.2 ± 4.2 L/kg
bioavailability [1]: 21.6 ± 3.8%
AUC(0-t) [1, 4]: 1660 ± 294 ng·h/mL
Cmax ([1]; PO. 10 mg/kg): 878 ± 94.3 ng/mL
half-life [1, 5]: 1430 ± 216 min
Compound: CNC(=O)Cn1cc(-c2ccc3c(c2)CCC32OC(=O)N(CC(=O)N(Cc3ccc(F)cc3)[C@H]3CCc4cccnc43)C2=O)cn1 (stereo partly drawn) [B8, N-((S)-6,7-Dihydro-5H-cyclopenta[b]pyridin-7-yl)-N-(4-fluorobenzyl)-2-(5-(1-(2-(methylamino)-2-oxoethyl)-1H-pyrazol-4-yl)-2′,4′-dioxo-2,3-dihydrospiro[indene-1,5′-oxazolidin]-3′-yl)acetamide]

IC50 (22Rv1 cells; Homo sapiens, Table 2): 340 nM
Compound: CNC(=O)Cn1cc(-c2ccc3c(c2)CCC32OC(=O)N(CC(=O)N(Cc3ccc(F)cc3)[C@@H]3CCc4ncccc43)C2=O)cn1 (stereo partly drawn) [B11, N-((R)-6,7-Dihydro-5H-cyclopenta[b]pyridin-5-yl)-N-(4-fluorobenzyl)-2-(5-(1-(2-(methylamino)-2-oxoethyl)-1H-pyrazol-4-yl)-2′,4′-dioxo-2,3-dihydrospiro[indene-1,5′-oxazolidin]-3′-yl)acetamide]
fold increased potency versus B10 (22Rv1 cells; 22Rv1 cell antiproliferation): 5 fold

IC50 (22Rv1 cells; Homo sapiens, Table 2): 265 nM
Compound: CNC(=O)Cn1cc(-c2ccc3c(c2)CCC32OC(=O)N(CC(=O)N(Cc3ccc(F)cn3)[C@@H]3CCc4ccccc43)C2=O)cn1 (stereo partly drawn) [B12, N-((R)-2,3-Dihydro-1H-inden-1-yl)-N-((5-fluoropyridin-2-yl)methyl)-2-(5-(1-(2-(methylamino)-2-oxoethyl)-1H-pyrazol-4-yl)-2′,4′-dioxo-2,3-dihydrospiro[indene-1,5′-oxazolidin]-3′-yl)acetamide]
fold increased potency versus B10 (22Rv1 cells; 22Rv1 cell antiproliferation): 5 fold

IC50 (22Rv1 cells; Homo sapiens, Table 2): 3470 nM
Compound: CNC(=O)Cn1cc(-c2ccc3c(c2)CCC32OC(=O)N(CC(=O)N(Cc3ccc(F)cn3)[C@@H]3CCc4cccnc43)C2=O)cn1 (stereo partly drawn) [B13, N-((R)-6,7-Dihydro-5H-cyclopenta[b]pyridin-7-yl)-N-((5-fluoropyridin-2-yl)methyl)-2-(5-(1-(2-(methylamino)-2-oxoethyl)-1H-pyrazol-4-yl)-2′,4′-dioxo-2,3-dihydrospiro[indene-1,5′-oxazolidin]-3′-yl)acetamide]

IC50 (22Rv1 cells; Homo sapiens, Table 2): 450 nM
Compound: CNC(=O)Cn1cc(-c2ccc3c(c2)CCC32OC(=O)N(CC(=O)N(Cc3ccc(F)cc3)[C@H]3CCCc4ccccc43)C2=O)cn1 (stereo partly drawn) [B15, N-(4-fluorobenzyl)-2-(5-(1-(2-(methylamino)-2-oxoethyl)-1H-pyrazol-4-yl)-2′,4′-dioxo-2,3-dihydrospiro[indene-1,5′-oxazolidin]-3′-yl)-N-((S)-1,2,3,4-tetrahydronaphthalen-1-yl)acetamide]

IC50 (22Rv1 cells; Homo sapiens, Table 2): 96 nM
AUC(0-t) [1, 2]: 536 ± 18.1 ng·h/mL
clearance ([1]; IV. 1 mg/kg): 30 mL/min/kg
half-life [1, 3]: 30 min
Vd ([1]; IV. 1 mg/kg): 1 ± 0.1 L/kg
bioavailability [1]: 33.2 ± 3%
AUC(0-t) [1, 4]: 1780 ± 158 ng·h/mL
Cmax ([1]; PO. 10 mg/kg): 759 ± 76.5 ng/mL
half-life [1, 5]: 96 ± 18 min
Compound: CNC(=O)Cn1cc(-c2ccc3c(c2)CCC32OC(=O)N(CC(=O)N(Cc3ccc(F)cc3)[C@H]3CCOc4ccccc43)C2=O)cn1 (stereo partly drawn) [B16, N-((S)-chroman-4-yl)-N-(4-fluorobenzyl)-2-(5-(1-(2-(methylamino)-2-oxoethyl)-1H-pyrazol-4-yl)-2′,4′-dioxo-2,3-dihydrospiro[indene-1,5′-oxazolidin]-3′-yl) acetamide]
fold more potency than A-485 (22Rv1 cells; 22Rv1 cell antiproliferation): 2 fold

IC50 (22Rv1 cells; Homo sapiens, Table 2): 8700 nM
Compound: CNC(=O)Nc1ccc2c(c1)CCC21OC(=O)N(CC(=O)N2CCCc3ccc(C(F)F)cc32)C1=O (centres unmarked) [B17, 1-(3′-(2-(7-(Difluoromethyl)-3,4-dihydroquinolin-1(2H)-yl)-2-oxoethyl)-2′,4′-dioxo-2,3-dihydrospiro[indene-1,5′-oxazolidin]-5-yl)-3-methylurea]

IC50 (22Rv1 cells; Homo sapiens, Table 2): > 25000 nM
Compound: Cn1cc(-c2ccc3c(c2)CCC32OC(=O)N(CC(=O)N3CCn4c(nnc4C(F)(F)F)C3)C2=O)cn1 (centres unmarked) [B18, 5-(1-Methyl-1H-pyrazol-4-yl)-3′-(2-oxo-2-(3-(trifluoromethyl)-5,6-dihydro-[1,2,4]triazolo[4,3-a]pyrazin-7(8H)-yl)ethyl)-2,3-dihydrospiro[indene-1,5′-oxazolidine]-2′,4′-dione]

IC50 (22Rv1 cells; Table 1): > 100000 nM
Compound: N-(4-Fluorobenzyl)-2-(2-methyl-2′,4′-dioxo-2,4,8,9-tetrahydrospiro[cyclopenta [6,7]chromeno [3,4-c]pyrazole-7,5′-oxazolidin]-3′-yl)-N-((S)-1,1,1-trifluoropropan-2-yl)acetamide [A4]

IC50 (22Rv1 cells; Table 1): 16100 nM
Compound: N-(4-Fluorobenzyl)-2-(3-(1-(2-(methylamino)-2-oxoethyl)-1H-pyrazol-4-yl)-2′,4′-dioxo-5,6-dihydrospiro[cyclopenta[b]pyridine-7,5′-oxazolidin]-3′-yl)-N-((S)-1,1,1-trifluoropropan-2-yl)acetamide [A5]

IC50 (22Rv1 cells; Table 1): > 100000 nM
Compound: N-(4-Fluorobenzyl)-2-(3-(1-(2-(methylamino)-2-oxoethyl)-1H-pyrazol-4-yl)-2′,4′-dioxospiro[fluorene-9,5′-oxazolidin]-3′-yl)-N-((S)-1,1,1-trifluoropropan-2-yl)acetamide [A1]

IC50 (22Rv1 cells; Table 1): 27000 nM
Compound: N-(4-Fluorobenzyl)-2-(3-(1-methyl-1H-pyrazol-4-yl)-2′,4′-dioxo-5,6-dihydrospiro [cyclopenta[c]pyridine-7,5′-oxazolidin]-3′-yl)-N-((S)-1,1,1-trifluoropropan-2-yl)acetamide [A6]

IC50 (22Rv1 cells; Table 1): 1800 nM
Compound: N-(4-Fluorobenzyl)-2-(5-(1-(2-(methylamino)-2-oxoethyl)-1H-pyrazol-4-yl)-2′,5′-dioxo-2,3-dihydrospiro[indene-1,3′-pyrrolidin]-1′-yl)-N-((S)-1,1,1-trifluoropropan-2-yl)acetamide [A7]

IC50 (22Rv1 cells; Table 1): 6410 nM
Compound: N-(4-Fluorobenzyl)-2-(5-(3-methylureido)-2′,5′-dioxo-2,3-dihydrospiro[indene-1,3′-pyrrolidin]-1′-yl)-N-((S)-1,1,1-trifluoropropan-2-yl)acetamide [A8]

IC50 (22Rv1 cells; Table 1): 351 nM
Compound: N-(4-Fluorobenzyl)-2-(5′-(3-methylureido)-2′′,4′′-dioxo-2′H-dispiro[cyclopropane-1,3′-indene-1′,5′′-oxazolidin]-3′′-yl)-N-((S)-1,1,1-trifluoropropan-2-yl)acetamide [A2]

IC50 (22Rv1 cells; Table 2): 1090 nM
Compound: N-(4-Fluorobenzyl)-N-((S)-1-methyl-4,5,6,7-tetrahydro-1H-indazol-4-yl)-2-(5-(1-(2-(methylamino)-2-oxoethyl)-1H-pyrazol-4-yl)-2′,4′-dioxo-2,3-dihydrospiro [indene-1,5′-oxazolidin]-3′-yl)acetamide [B14]
